The values below come from US5026728A, “Treatment of arthritis and inflammation using N,N-dimethylglycine” (Foodscience Corporation, priority 1989, dated 1991).

The subject of assay [1] is T cells and macrophages. Conditions: research on humans; cited from earlier work.
The subject of assay [2] is B cells. As to conditions: research on humans; cited from earlier work.
In assay [3] the test system is arthritis (Type II collagen-induced). As to the kind of experiment: Type II collagen-induced arthritis in rats, arthritic swelling of hindpaws (Example 1). Set-up: key to rats which showed arthritic swelling (mark): *: Indicates rats which showed arthritic swelling. The assay is classed as in vivo, Female Wistar outbred rats. As to conditions: 100 mg/kg/day i.p. As for the experimental part: (§1) Female Wistar outbred rats (age 10-12 weeks) were obtained from Charles River Breeding Laboratories Inc., Wilmington, Mass.) housed in metal cages and fed standard rodent chow with water ad libitum.
(§2) Immunization was performed using the method outlined by Stuart et al. (Stuart et al., supra). Type II collagen was dissolved in 0.01N acetic acid at a concentration of 2 mg/ml stirring overnight at 4° C. An emulsion was made using incomplete Freund's adjuvant (Difco) and each collagen solution at a ratio of 6:4. Eighteen Wistar rats were given 0.1 ml of a cold emulsion of collagen II by intradermal injection of the left hind footpad and booster injections in the tail at one week and again on day 36.
(§3) Dimethylglycine mixed in distilled water was administered intraperitoneally to half of the rats in the study at a dosage rate of 100 mg/kg body weight per day, beginning on the day of collagen immunization. Control rats were injected with only distilled water. Rats were sacrificed at the time of the occurrence of arthritis and were bled by cardiac puncture. Rats surviving at day 30 were bled by the tail vein and were bled again at the end of the study (day 51).
Animals in both groups were observed daily for the onset of arthritis. Swelling of the hindpaws was quantitated by measuring the thickness of the ankle from medial to lateral malleolus with a caliper (as done by Trentham et al. supra).

Assay [4] deals with interferon. Conditions: cited from earlier work.
Assay [5] relates to chronic obstructive pulmonary disease (heaves). As to the kind of experiment: Treatment of chronic obstructive pulmonary disease in horses (Example 5). It is filed as in vivo, horses (standardbred). The protocol: Three standardbred horses, ages 3 to 7 years, were diagnosed as having chronic obstructive pulmonary disease, also known as equine asthma or the heaves. Clinical signs included frequent coughing, nasal discharge, increased respiratory rate and wheezing in the chest area. The horses were treated orally with 1.5 g of DMG hydrochloride twice daily for ten days.

The conditions of assay [6]: cited from earlier work.
For assay [7], the system named is lymphocytes. As to conditions: sickle cell disease and diabetes patients; three lectins; cited from earlier work.
Assay [8] relates to interferon. As to conditions: cited from earlier work. The source holds these as a separate data set.
The test system of assay [9] is Type II collagen. As to the kind of experiment: ELISA immunoassay of antibody to Type II collagen in sera of collagen-immunized rats. The assay is classed as in vivo, Female Wistar outbred rats. The protocol: as §1, §2, §3
Sera were obtained by cardiac puncture on the day arthritis developed or at the end of the study (day 51). An enzyme-linked immunoassay (ELISA) technique adapted from the methods described by Stuart et al. supra was used to measure antibody titres.
Flat bottom 96 well microtitre plates (Corning) were coated with collagen as follows: Collagen was dissolved in 0.4 ionic strength phosphate buffer, pH 7.6 by stirring overnight at 4° C. The collagen concentration was adjusted to 5 μg/ml determined by the Lowry method (Lowry, O. et al., J. Biol. Chem. 193, 265 [1951]). Each well received 100 μl of collagen solution and the plates were incubated at 4° C. overnight. The coating solution was removed by inverting the plate and sharply snapping the wrist to remove remaining droplets. To reduce nonspecific absorption a blocker of phosphate-buffered saline (PBS) (pH 7.4) containing 0.5% ovalbumin (Grade V), Sigma Chemical Co., St. Louis, Mo.) was added and incubated for 1 hr. The plates were washed with PBS-Tween (containing […]) three times and used immediately. The sera were diluted with PBS-Tween containing 0.5% ovalbumin and aliquots of 100 μl were added to the Type II collagen-coatad microtitre plates. The plates were incubated at 4° C. overnight and washed three times with PBS-Tween. One hundred μl of a 1:3000 dilution of rabbit anti-rat IgG peroxidase conjugate (Sigma) was added and incubated for 4 hr at room temperature. Excess conjugate was removed by washing three times with PBS-Tween and the amount of conjugate bound was determined by adding orthophenylenediamine (OPD) (Sigma Chemical Co.) as a substrate. The substrate was prepared by adding 40 mg of OPD to […] of 0.224M citric acid 0.05M dibasic sodium phosphate pH 5.0 and adding 400 μl of 3% hydrogen peroxide. After incubation with the substrate for 20 min the microtitre plates were read for absorbance at 490 nm using a Mini Reader II (Dynatech).
On the technique in general: An ELISA detects its analyte on a solid surface through an enzyme-linked reagent.

In assay [10] the test system is arthritis (Type II collagen-induced). The assay is described as follows: Prevention of arthritis in collagen-injected rats (Example 2). It is filed as in vivo. The protocol: Eighteen rats were divided into two groups. Nine animals were injected i.p. with DMG (100 mg/kg body weight) daily, starting on day 14 prior to administration of collagen II, and continuing for 30 days after collagen II injection or until severe arthritic lesions were observed, if earlier. The remaining nine rats were similarly injected i.p. with sterile water. In this experiment, as compared with Example 1, the source of the collagen II was changed from a commercial preparation (Chemicon Corp., Temecula, Calif.) to a fresh preparation prepared by the process according to Trentham et al., 1977, supra.

The subject of assay [11] is T cells and macrophages. Conditions: early research; cited from earlier work.
The conditions of assay [12]: animals under extreme stress; cited from earlier work.
For assay [13], the system named is hybridoma antibody producing cells. Conditions: in vitro cell cultures; cited from earlier work.
Assay [14] has as its system lymphocytes. Conditions: lymphocytes from DMG-fed animals; cited from earlier work.
The test system of assay [15] is B cells. As to conditions: early research; cited from earlier work.
The conditions of assay [16]: high-dose rats; cited from earlier work.
The conditions of assay [17]: human tests; cited from earlier work.
Assay [18] has as its system gouty arthritis. The assay is described as follows: Treatment of gouty arthritis in humans (Example 4). Conditions: 250 mg t.i.d. The assay is classed as in vivo, human. The protocol:
DMG was administered to two patients suffering from gouty arthritis, at a dosage of 250 mg t.i.d. over a three week period.

The conditions of assay [19]: greyhounds given DMG; cited from earlier work.
For assay [20], the system named is rheumatoid arthritis. The assay is described as follows: Treatment of rheumatoid arthritis in humans (Example 3). It is filed as in vivo, human. The protocol: Three patients, diagnosed as having rheumatoid arthritis in one or both knees with symptoms of acute pain, inflammation, joint tenderness and morning stiffness, were treated orally with 500 mg of DMG taken four times daily. The test period lasted for six weeks, during which time no other antiinflammatory drugs were taken.

Assay [21] deals with lactic acid. As to conditions: intravenous, severe surgical stress; cited from earlier work.
Setting [22] is: antibody titre, individual rat, DMG 100 mg/kg/day i.p., absorbance at 490 nm.
Setting [23] is: mean, DMG-treated rats, 100 mg/kg/day i.p.
Where [24] appears, read: after 5 days, 1.5 g orally twice daily.

“And” between values parts separate entries of the source, which are not always exact repeats. Identical values can stand only once. “Also recorded” adds a separate entry of the source. Counter-ions that a name gives are not always drawn. Like-named read-outs stand apart in the source and are kept apart here.

In the case of `CN(C)CC(=O)O` [DMG, N,N-dimethylglycine], in assay [1], the “activity of T cells and macrophages” value is “enhances the activity of T cells and macrophages”. In addition, the “antibody responses of B cells” value in assay [2] is “much higher antibody responses”. In addition, the “arthritic swellings of the hindpaws compared with non-DMG-treated group” value in assay [3] (beginning on the day of collagen immunization) is listed as “did not develop to the same extent the arthritic swellings of the hindpaws”. In assay [3] (individual rat), the “rats which showed arthritic swelling (mark)” value is on record as “*”. Further, in assay [4] (primary response, DMG-fed, none detected in immunized controls), the interferon level result is listed as “high levels of interferon was present”. Moreover, the interferon level result in [4] (secondary response) is reported as “Interferon was not present”. Moreover, the “effect on inflammatory condition, heaves in horses” value in assay [5] (summary statement in description) was “demonstrated to reduce the inflammatory condition and to be an effective therapy for heaves in horses”. Also, the “blood lactic acid level following training” value in assay [6] (DMG in the diet) is on record as “lower blood lactic acid level following training”. Moreover, the “appetite, attitude and recovery from racing and training” value in assay [6] (trainers' observation, versus controls) was “more aggressive, to have better appetites and attitudes and to recover faster from racing and training than the controls”. In addition, in assay [7], the “blast transformation activity of lymphocytes” value is on record as “approximately doubled”. Besides, in assay [8], the interferon production result is recorded as “effective in doubling interferon production; also recorded: will increase interferon production”. The “antibody titres compared with control animals” value in assay [9] (100 mg/kg/day i.p., rats immunized with Type II collagen) is “developed higher antibody titres than control animals”. In assay [9] (setting [22]), the “ELISA Reading, serum from day 17” value was “.78”; the “ELISA Reading, serum from day 30” value is “.47 and .00 and .28 and .32 and .33 and .20 and .17 and .48”; the “ELISA Reading, serum from day 51” value was “.60 and .88 and .18 and .35 and .90 and .56 and .64”. In addition, in [9] (setting [23]), the “Mean ELISA Reading, serum from day 17” value was “.78”; the “Mean ELISA Reading, serum from day 30” value was “.28”; the “Mean ELISA Reading, serum from day 51” value is given as “.54”. Further, in assay [10] (100 mg/kg i.p. daily from day 14 before collagen II, all control animals developed arthritis), the “animals developing characteristic inflammation and swelling, of nine” value was “only two developed the characteristic inflammation and swelling to any extent”. The “development of inflammation and swelling associated with Type II collagen-induced arthritis” value in [10] (100 mg/kg/day, starting on day 14 prior to injection) is “either does not develop to the same extent, or does not develop at all”. Further, the “activity of T cells and macrophages (cellular immunity branch)” value in [11] was “potentiates the activity of T cells and macrophages”. In assay [12], the lactic acid levels result was “decrease lactic acid levels” and the oxygen utilization result is recorded as “increase oxygen utilization”. Besides, the production of antibodies result in assay [13] is recorded as “increases the production of antibodies”. Moreover, in [14], the “lymphocyte activation / proliferation” value was “can stimulate the cellular immune system by lymphatic proliferation”. In assay [15], the “antibody responses of B cells (humoral branch)” value is given as “much higher antibody responses”. The adaptation to hypoxia entry in assay [16] was “better adaptation to hypoxia”. In addition, in [17], the exhaustion time entry is “increase in exhaustion time”; the “immune response (antibody production and lymphocyte generation)” value was “enhancement of the body's immune response”. In assay [18], the “time after which benefits were noted” value fell in the range of 7 to 10 days and the “time to maximal benefits” value is “maximal after two weeks”. Moreover, in [18] (three weeks), the “pain, redness and inflammation” value was “Less pain, redness and inflammation were noted”. Further, in [19], the racing performance entry was “improvement in racing performance” and the recovery after races result is on record as “better recovery after races with less fatigue or muscle stiffness”. The “fatigue and night pain” value in assay [20] (500 mg orally four times daily) was “All three patients reported less fatigue and less night pain”. Moreover, the “improvement in inflammation, pain and morning stiffness” value in assay [20] (after 21 days, 500 mg orally four times daily) is “two patients reported significant improvement in reduction of inflammation, pain and morning stiffness; also recorded: the third patient reported a lesser improvement”. Moreover, the additional improvement entry in [20] (last three weeks of therapy (six weeks)) is “Additional improvement was noted in all three patients”. The lactic acid production result in [21] is “decreased lactic acid production”.

As to `CN(C)CC(=O)O` [DMG-HCl], in assay [5] (setting [24]), the “breathing and nasal discharge” value was “improved breathing and less nasal discharge”; the symptomatic relief result is “All three horses showed symptomatic relief after 5 days”. Moreover, the “clearing of air passages” value in assay [5] (end of 10 days, 1.5 g orally twice daily) is “the air passages of all three horses had cleared”.
